Source: US20120282377A1, “Methods and Formulations for Inhibiting Degradation of Photosensitive Sweeteners and Sweetener Enhancers” (priority 2011, published 2012)

What was measured:
Type in all cases: physicochemical
[1] = Stability of sweetness enhancer to sunlight exposure in PET bottle with and without UV barrier (Example 1); conditions: 25 mg/L solution, 395 Langleys (Atlas Sun Test XLS+)
Protocol: Sweetness enhancer 3-((4-amino-2,2 -dioxido-1H-benzo [c][1,2,6]thiadiazin-5-yl)oxy)-2,2-dimethyl-N-propylpropanamide was evaluated for stability to sunlight exposure when formulated into a beverage packaged in PET packaging (bottle) with and without a UV barrier. The UV barrier PET bottle contained a UV absorbent compound that absorbs light up to approximately 390 nm. When a 25 mg/L solution of 3-((4-amino-2,2-dioxido-1H-benzo[c][1,2,6]thiadiazin-5-yl)oxy)-2,2-dimethyl-N-propylpropanamide was exposed to 395 Langleys of radiation (Atlas Sun Test XLS+Instrument) in a clear PET bottle with no UV barrier, 92% of 3-((4-amino-2,2 -dioxido-1H-benzo [c][1,2,6]thiadiazin-5-yl)oxy)-2,2-dimethyl-N-propylpropanamide was lost to degradation. The light exposure in this experiment was approximately equivalent to 24 hours of continuous irradiation or 2-3 days of normal sunlight irradiation (due to day/night cycle). In contrast, when the same experiment was carried out in a UV barrier PET bottle, only 10% of the 3-((4-amino-2,2-dioxido-1H-benzo[c][1,2,6]thiadiazin-5-yl)oxy)-2,2-dimethyl-N-propylpropanamide was lost to degradation.

[2] = Sucrose enhancer stability in prototype beverage formulation, UV irradiation in Atlas SunTest XLS+ (Example 6)
Protocol: The stability of sucrose enhancer 3-((4-amino-2,2-dioxido-1H-benzo[c][1,2,6]thiadiazin-5-yl)oxy)-2,2-dimethyl-N-propylpropanamide in regular PET bottles and PET bottles with UV barrier was evaluated. A control formulation was used that contained 106 mg sucrose enhancer in 4163 mg of a prototype beverage formulation. The prototype beverage formulation contained water, HFCS-55, citric acid, potassium citrate, EDTA, salts and vitamins. The samples were exposed to UV light using different Langley irradiation energy exposure at 40° C. in Atlas SunTest XLS+chamber.

[3] = Photodegradation on exposure to sunlight / UV light (background statements); conditions: sunlight for 2-3 days
Source text: Monatin (2-amino-4-carboxy-4-hydroxy-5-(3-indolyl)-pentanoic acid or 4-hydroxy-4-(3-indolylmethyl)-glutamic acid) is a natural sweetener. Monatin contains two chiral centers and therefore has four potential isomeric configurations: R,R-; S,S-; R,S-; and S,R-monatin. Different stereoisomers have different sweetening characteristics. Amino et al. have reported that the sweetness intensity is dependent on the optical purity of each stereoisomer (U.S. Patent Publication No. 2005/0020508).

[4] = prototype beverage formulation (control), PET, 0 Langley
[5] = prototype beverage formulation, PET with UV barrier, 66 Langley, 40° C.
[6] = prototype beverage formulation, PET with UV barrier, 197 Langley, 40° C.
[7] = prototype beverage formulation, PET with UV barrier, 395 Langley, 40° C.
[8] = prototype beverage formulation, PET, 66 Langley, 40° C.
[9] = prototype beverage formulation, PET, 197 Langley, 40° C.
[10] = prototype beverage formulation, PET, 395 Langley, 40° C.

SMILES: CCCNC(=O)C(C)(C)COc1cccc2c1C(N)=NS(=O)(=O)N2 [Sucrose enhancer, 3-((4-amino-2,2-dioxido-1H-benzo[c][1,2,6]thiadiazin-5-yl)oxy)-2,2-dimethyl-N-propylpropanamide]
- lost to degradation ([1]; UV barrier PET bottle): 10%
- lost to degradation ([1]; clear PET bottle with no UV barrier): 92%
- Loss of Sucrose Enhancer (%) [2, 4]: 0%
- Remaining Sucrose Enhancer (%) [2, 4]: 100%
- Remaining Sucrose Enhancer (ppm) [2, 4]: 21.5 ppm
- Loss of Sucrose Enhancer (%) [2, 5]: 4%
- Remaining Sucrose Enhancer (%) [2, 5]: 96%
- Remaining Sucrose Enhancer (ppm) [2, 5]: 20.7 ppm
- Loss of Sucrose Enhancer (%) [2, 6]: 5%
- Remaining Sucrose Enhancer (%) [2, 6]: 95%
- Remaining Sucrose Enhancer (ppm) [2, 6]: 20.5 ppm
- Loss of Sucrose Enhancer (%) [2, 7]: 10%
- Remaining Sucrose Enhancer (%) [2, 7]: 90%
- Remaining Sucrose Enhancer (ppm) [2, 7]: 19.3 ppm
- Loss of Sucrose Enhancer (%) [2, 8]: 37%
- Remaining Sucrose Enhancer (%) [2, 8]: 63%
- Remaining Sucrose Enhancer (ppm) [2, 8]: 13.6 ppm
- Loss of Sucrose Enhancer (%) [2, 9]: 75%
- Remaining Sucrose Enhancer (%) [2, 9]: 25%
- Remaining Sucrose Enhancer (ppm) [2, 9]: 5.4 ppm
- Loss of Sucrose Enhancer (%) [2, 10]: 92%
- Remaining Sucrose Enhancer (%) [2, 10]: 7.9%
- Remaining Sucrose Enhancer (ppm) [2, 10]: 1.7 ppm
- degradation upon exposure to sunlight [3]: completely degraded to inactive ingredients
